Data as given in patent publication US9718785B2, “1,3-Disubstituted cyclopentane derivatives” (MERCK PATENT GMBH, priority 2013, dated 2017).

biological target: T1, human recombinant full-length fatty acid synthase (FASN) (Homo sapiens, UniProt P49327); assay: Biochemical activity testing of human fatty acid synthase FASN (NADPH fluorescence intensity enzyme assay); settings: human recombinant FASN, enzyme assay
T1 construct: 40 nM human recombinant full-length fatty acid synthase (produced in-house in SF9 cells); made in house; host or cells: SF9 insect cells
Outline: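 Recombinant full-length human FASN from SF9 cells, preincubated with compound (10 concentrations, top 30 μM final, 1% DMSO) and NADPH ≥15 min at room temperature, pH 7.0. Acetyl-CoA and malonyl-CoA added; NADPH fluorescence (340/460 nm) read before and after 30 min. IC50 from signal difference, normalised to uninhibited reaction and GSK837149A zero control.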

T1 sequence (P49327 whole entry): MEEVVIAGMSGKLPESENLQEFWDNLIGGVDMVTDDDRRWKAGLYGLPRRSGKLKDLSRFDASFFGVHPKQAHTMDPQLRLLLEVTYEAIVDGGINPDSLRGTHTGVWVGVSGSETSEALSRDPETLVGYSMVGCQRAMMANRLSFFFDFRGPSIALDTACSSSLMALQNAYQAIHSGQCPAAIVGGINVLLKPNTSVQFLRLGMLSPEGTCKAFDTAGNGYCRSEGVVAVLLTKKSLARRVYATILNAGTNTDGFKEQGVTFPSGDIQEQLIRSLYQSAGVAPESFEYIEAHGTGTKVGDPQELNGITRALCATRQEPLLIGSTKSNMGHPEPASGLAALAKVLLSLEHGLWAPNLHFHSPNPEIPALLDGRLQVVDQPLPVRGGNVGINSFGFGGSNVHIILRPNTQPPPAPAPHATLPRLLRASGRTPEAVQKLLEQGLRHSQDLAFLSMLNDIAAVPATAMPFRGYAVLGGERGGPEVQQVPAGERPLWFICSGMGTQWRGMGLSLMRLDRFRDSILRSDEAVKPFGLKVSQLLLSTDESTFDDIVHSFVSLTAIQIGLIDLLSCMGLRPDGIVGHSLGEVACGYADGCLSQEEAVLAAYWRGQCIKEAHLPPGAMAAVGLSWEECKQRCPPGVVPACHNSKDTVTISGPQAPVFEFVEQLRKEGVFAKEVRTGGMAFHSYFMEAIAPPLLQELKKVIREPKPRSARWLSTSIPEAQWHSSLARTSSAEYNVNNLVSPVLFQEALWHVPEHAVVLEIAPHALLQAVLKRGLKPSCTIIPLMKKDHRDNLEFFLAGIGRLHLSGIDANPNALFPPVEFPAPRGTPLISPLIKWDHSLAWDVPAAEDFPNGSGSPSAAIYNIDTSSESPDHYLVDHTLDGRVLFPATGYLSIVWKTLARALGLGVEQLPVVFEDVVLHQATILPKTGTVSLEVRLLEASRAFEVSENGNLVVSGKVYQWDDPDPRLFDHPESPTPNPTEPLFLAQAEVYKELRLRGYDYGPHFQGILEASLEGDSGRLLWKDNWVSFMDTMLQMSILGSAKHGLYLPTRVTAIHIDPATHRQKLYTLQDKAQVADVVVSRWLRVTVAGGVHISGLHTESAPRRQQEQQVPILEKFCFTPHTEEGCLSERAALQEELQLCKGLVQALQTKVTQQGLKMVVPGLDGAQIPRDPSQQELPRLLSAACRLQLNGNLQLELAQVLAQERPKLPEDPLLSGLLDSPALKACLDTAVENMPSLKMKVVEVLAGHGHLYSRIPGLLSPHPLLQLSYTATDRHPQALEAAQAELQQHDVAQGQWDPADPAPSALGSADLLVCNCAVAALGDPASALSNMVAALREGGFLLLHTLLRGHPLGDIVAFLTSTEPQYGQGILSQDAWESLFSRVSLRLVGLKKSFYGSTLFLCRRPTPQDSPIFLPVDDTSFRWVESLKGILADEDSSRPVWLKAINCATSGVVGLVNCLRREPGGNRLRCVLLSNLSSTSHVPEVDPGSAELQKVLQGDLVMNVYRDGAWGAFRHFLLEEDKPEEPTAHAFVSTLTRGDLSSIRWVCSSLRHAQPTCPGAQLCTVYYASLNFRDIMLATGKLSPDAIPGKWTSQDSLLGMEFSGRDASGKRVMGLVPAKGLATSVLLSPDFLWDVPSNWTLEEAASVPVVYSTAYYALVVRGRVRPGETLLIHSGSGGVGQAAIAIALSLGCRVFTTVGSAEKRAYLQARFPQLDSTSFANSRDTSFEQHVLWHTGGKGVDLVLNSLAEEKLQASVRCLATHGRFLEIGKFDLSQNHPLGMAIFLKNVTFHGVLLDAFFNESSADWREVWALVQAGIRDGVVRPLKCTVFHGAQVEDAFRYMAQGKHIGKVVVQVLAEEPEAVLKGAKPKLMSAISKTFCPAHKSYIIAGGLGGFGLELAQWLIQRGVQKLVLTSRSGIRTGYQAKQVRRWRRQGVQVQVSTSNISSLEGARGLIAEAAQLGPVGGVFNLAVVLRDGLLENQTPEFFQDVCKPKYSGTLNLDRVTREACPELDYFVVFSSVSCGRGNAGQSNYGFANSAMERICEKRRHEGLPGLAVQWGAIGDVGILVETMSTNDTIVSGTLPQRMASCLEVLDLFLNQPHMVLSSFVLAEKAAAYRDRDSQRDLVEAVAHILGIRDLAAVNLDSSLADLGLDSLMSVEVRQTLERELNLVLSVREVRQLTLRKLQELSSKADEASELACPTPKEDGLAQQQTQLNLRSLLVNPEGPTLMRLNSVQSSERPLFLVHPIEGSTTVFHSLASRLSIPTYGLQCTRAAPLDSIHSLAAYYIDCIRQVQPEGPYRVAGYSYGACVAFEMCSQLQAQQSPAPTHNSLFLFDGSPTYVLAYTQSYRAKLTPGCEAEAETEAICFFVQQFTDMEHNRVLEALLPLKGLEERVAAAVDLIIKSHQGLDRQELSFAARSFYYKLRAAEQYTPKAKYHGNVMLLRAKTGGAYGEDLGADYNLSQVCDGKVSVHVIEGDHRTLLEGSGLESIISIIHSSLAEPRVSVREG

| SMILES | IC50 [nM] |
| --- | --- |
| CCC(=O)N[C@H]1CC[C@@H](n2nncc2-c2ccc(-c3ccc4[nH]ccc4c3F)cc2)C1 [Compound A110, N-((1S,3R)-3-{5-[4-(4-Fluoro-1H-indol-5-yl)-phenyl]-[1,2,3]triazol-1-yl}-cyclopentyl)-propionamide] | < 300 |
| CCC(=O)N[C@H]1CC[C@@H](n2nncc2-c2ccc(-c3ccc4nccn4c3)cc2)C1 [Compound A111, N-{(1S,3R)-3-[5-(4-Imidazo[1,2-a]pyridin-6-yl-phenyl)-[1,2,3]triazol-1-yl]-cyclopentyl}-propionamide] | < 300 |
| CCC(=O)N[C@H]1CC[C@@H](n2nncc2-c2ccc(-c3cc4cc[nH]c4cc3F)cc2)C1 [Compound A112, N-((1S,3R)-3-{5-[4-(6-Fluoro-1H-indol-5-yl)-phenyl]-[1,2,3]triazol-1-yl}-cyclopentyl)-propionamide] | < 300 |
| CCC(=O)N[C@H]1CC[C@@H](n2nncc2-c2ccc(-c3ccc4[nH]ccc4n3)cc2)C1 [Compound A113, N-((1S,3R)-3-{5-[4-(1H-Pyrrolo[3,2-b]pyridin-5-yl)-phenyl]-[1,2,3]triazol-1-yl}-cyclopentyl)-propionamide] | < 300 |
| CCC(=O)N[C@H]1CC[C@@H](n2nncc2-c2ccc(-c3nc4ccc(Cl)cc4o3)cn2)C1 [Compound A114, N-((1S,3R)-3-{5-[5-(6-Chloro-benzoxazol-2-yl)-pyridin-2-yl]-[1,2,3]triazol-1-yl}-cyclopentyl)-propionamide] | 300 to 3000 |
| CCC(=O)N[C@H]1CC[C@@H](n2nncc2-c2ccc(-c3nc4ccccc4o3)cn2)C1 [Compound A115, N-{(1S,3R)-3-[5-(5-Benzoxazol-2-yl-pyridin-2-yl)-[1,2,3]triazol-1-yl]-cyclopentyl}-propionamide] | < 300 |
| CCC(=O)N[C@H]1CC[C@@H](n2nncc2-c2ccc(-c3ccc4[nH]ccc4c3F)cn2)C1 [Compound A116, N-((1S,3R)-3-{5-[5-(4-Fluoro-1H-indol-5-yl)-pyridin-2-yl]-[1,2,3]triazol-1-yl}-cyclopentyl)-propionamide] | < 300 |
| CCC(=O)N[C@H]1CC[C@@H](n2nncc2-c2ccc(-c3ccc4[nH]ccc4c3)cn2)C1 [Compound A117, N-((1S,3R)-3-{5-[5-(1H-Indol-5-yl)-pyridin-2-yl]-[1,2,3]triazol-1-yl}-cyclopentyl)-propionamide] | < 300 |
| CCC(=O)N[C@H]1CC[C@@H](n2nncc2-c2ccc(-c3ccc4[nH]ccc4n3)cn2)C1 [Compound A118, N-((1S,3R)-3-{5-[5-(1H-Pyrrolo[3,2-b]pyridin-5-yl)-pyridin-2-yl]-[1,2,3]triazol-1-yl}-cyclopentyl)-propionamide] | < 300 |
| CCC(=O)N[C@H]1CC[C@@H](n2nncc2-c2ccc(-c3ccc4[nH]ccc4c3F)c(F)c2)C1 [Compound A119, N-((1S,3R)-3-{5-[3-Fluoro-4-(4-fluoro-1H-indol-5-yl)-phenyl]-[1,2,3]triazol-1-yl}-cyclopentyl)-propionamide] | < 300 |
| CCC(=O)N[C@H]1CC[C@@H](n2nncc2-c2ccc(-c3cc4cc[nH]c4cc3F)c(F)c2)C1 [Compound A120, N-((1S,3R)-3-{5-[3-Fluoro-4-(6-fluoro-1H-indol-5-yl)-phenyl]-[1,2,3]triazol-1-yl}-cyclopentyl)-propionamide] | < 300 |
| CCC(=O)N[C@H]1CC[C@@H](n2nncc2-c2ccc(-c3ccc4cc[nH]c4c3)nc2)C1 [Compound A121, N-((1S,3R)-3-{5-[6-(1H-Indol-6-yl)-pyridin-3-yl]-[1,2,3]triazol-1-yl}-cyclopentyl)-propionamide] | < 300 |
| CCC(=O)N[C@H]1CC[C@@H](n2nncc2-c2ccc(-c3ccc4ccn(C)c4c3)nc2)C1 [Compound A122, N-((1S,3R)-3-{5-[6-(1-Methyl-1H-indol-6-yl)-pyridin-3-yl]-[1,2,3]triazol-1-yl}-cyclopentyl)-propionamide] | 300 to 3000 |
| CCC(=O)N[C@H]1CC[C@@H](n2nncc2-c2ccc(-c3cccc4[nH]ncc34)nc2)C1 [Compound A123, N-((1S,3R)-3-{5-[6-(1H-Indazol-4-yl)-pyridin-3-yl]-[1,2,3]triazol-1-yl}-cyclopentyl)-propionamide] | 300 to 3000 |
